{"source": "patent US20260263593A1", "about": "“ALLERGY ANTIGEN AND EPITOPE THEREOF” (HOYU CO., LTD., priority 2018, published 2026)", "key": {"[1]": {"system": "IgE antibodies from patients having allergies to each food", "assay": "Confirmation of epitope cross-reactivity by ELISA with N-terminally biotinylated peptides", "format": "binding, human", "conditions": "serum of allergic patient versus nonallergic subject", "description": "The binding activity of peptides comprising the amino acid sequences described in the column “Synthesis sequence” and the rightmost column “SEQ ID NO” of Table 3 against IgE antibodies from patients having allergies to each food described in the column “Food with which cross-reactivity was confirmed” in Tables 3-1 to 3-50 was confirmed by ELISA. The peptides were synthesized such that the peptides were N-terminally biotinylated by the Fmoc method.\nTo be specific, ELISA was carried out according to the following procedure. • (1) The concentrations of the biotinylated peptides were adjusted to 10 μg/mL with PBST (0.1% Tween 20). • (2) Each peptide solution was added at 20 μL to each well of a 384-well plate coated with streptavidin, and shaken at room temperature for one hour. After collection of the solution, the wells were washed with PBS five times. • (3) Pierce Protein-Free (PBS) Blocking Buffer (produced by Thermo) was added at 40 μL thereto and shaken at room temperature for one hour. After removal of the solution, the wells were washed with PBST five times. • (4) 2% serum/Canget SignalSolution I (produced by TOYOBO) was added at 20 μL thereto and shaken at room temperature for one hour. After removal of the solution, the wells were washed with PBST five times. • (5) A diluted secondary antibody solution (1:10000, Canget SignalSolution II (produced by TOYOBO)) was added at 20 μL thereto and shaken at room temperature for one hour. After removal of the solution, the wells were washed with PBST five times. • (6) 1-Step Ultra TMB-ELISA (produced by Thermo) was added at 20 μL thereto and shaken at room temperature for 15 minutes. • (7) 2 M H2SO4 was added at 20 μL thereto. Absorbance at 450 nm was measured.\nPeptides having these amino acid sequences were prepared by the same procedure as described in Example 4(A), and the presence or absence of binding thereto of IgE antibodies present in the serum of an allergic patient and the serum of a nonallergic subject was measured. The serum of two nonallergic subjects was measured, and values obtained by dividing the measurement values by an average value thereof were described.\nThe ordinate of each figure depicts “absorbance of the allergic patient/absorbance of the nonallergic patient (healthy subject)”. Different contrasts of two bar graphs for the same sequences mean separate patients. For example, graph No. 8 and No. 10 in FIG. 7 are results about different patients as to peptides having the same sequences. The names of the cooking ingredients described in each graph are the names of cooking ingredients containing a polypeptide comprising an amino acid sequence serving as the basis of each synthetic sequence used."}, "[2]": {"system": "IgE antibody present in the serum of a shrimp-allergic patient", "assay": "Epitope mapping (1): array of overlapping 15-amino-acid peptides, chemiluminescence", "format": "binding, human", "conditions": "15-amino-acid peptide array; serum of 37 patients; difference from N2nd value of 5 non-shrimp-allergic subjects at least 35,000", "description": "Epitope mapping was carried out using a library of overlapping peptides (length: 15 amino acids) corresponding to the amino acid sequences identified as allergy components of shrimp and the amino acid sequence of arginine kinase. Specifically, the library of overlapping peptides was prepared on the basis of the amino acid sequences of SEQ ID NOs: 117, 141, 146, 2, 45, 87, 276, 161, 230, 179, 362, 381, 399, 421, 455, 481, 486, 520, 541, 300 and 306, and arginine kinase.\nThe peptides to be synthesized were shifted by 10 amino acids.\nFor preparation of peptide arrays, the Intavis CelluSpots™ technique was used. Specifically, the peptide arrays were prepared by the following procedure: (1) synthesizing peptides of interest on amino-modified cellulose disks using an automated chemical synthesis apparatus (Intavis MultiPep RS), (2) dissolving the amino-modified cellulose disks to obtain a cellulose-bound peptide solution, and (3) spotting the cellulose-bound peptides onto coated glass slides. The details of each procedure are as described below.\nPeptide synthesis was carried out in incremental steps through 9-fluorenylmethoxycarbonyl (Fmoc) chemical reaction on amino-modified cellulose disks in 384-well synthesis plates. Specifically, amino acids in which a Fmoc group is bonded to an amino group were activated in a solution of N,N′-diisopropylcarbodiimide (DIC) and 1-hydroxybenzotriazole (HOBt) in dimethylformamide (DMF) and added dropwise to the cellulose disks so that the Fmoc group-bound amino acids were bound to the amino groups on the cellulose disks (coupling). Unreacted amino groups were capped with acetic anhydride and washed with DMF. Furthermore, the Fmoc groups were eliminated from the amino groups of the amino acids bound to the amino groups on the cellulose disks by treatment with piperidine and washing with DMF. The amino acids bound to the amino groups on the cellulose disks were repetitively subjected to the coupling, the capping, and the Fmoc group elimination described above to elongate the amino terminus for peptide synthesis.\nThe peptides-bound cellulose disks of interest obtained above in the subsection titled “(1) Synthesis of peptide” were transferred to 96-well plates and treated with a side chain deprotection mixed solution of trifluoroacetic acid (TFA), dichloromethane, triisopropylsilane (TIPS), and water for deprotection of amino acid side chains. Then, the deprotected cellulose-bound peptides were dissolved in a mixed solution of TFA, trifluoromethanesulfonic acid (TFMSA), TIPS, and water and precipitated in tetrabutyl methyl ether (TBME), and the precipitate was resuspended in dimethyl sulfoxide (DMSO) and mixed with a mixed solution of NaCl, sodium citrate, and water to obtain a peptide solution for slide spotting.\nThe peptide solution for slide spotting obtained above in the subsection titled “(2) Dissolution of amino-modified cellulose disk” was spotted onto Intavis CelluSpots™ slides using Intavis Slide Spotting Robot, and the slides were dried to prepare peptide arrays.\nThe presence or absence of binding, to each peptide fragment, of an IgE antibody present in the serum of a shrimp-allergic patient was measured through antigen-antibody reaction using the peptide arrays. […]"}}, "data": [{"substance": "SEQ ID NO: 593: polypeptide consisting of 4 amino acid residues, epitope sequence of polypeptide (E4) (TLLEPE; VAR_SEQ 1..6 epitope)", "values": [{"measurement": "Epitope cross-reactivity", "setting": "[1]", "value": "confirmed in many samples"}]}, {"substance": "SEQ ID NO: 655: polypeptide consisting of 4 amino acid residues, epitope sequence of polypeptide (E11) (KNAK; VAR_SEQ 1..4 epitope)", "values": [{"measurement": "Epitope cross-reactivity", "setting": "[1]", "value": "confirmed in many samples"}]}, {"substance": "SEQ ID NO: 662: polypeptide consisting of 4 amino acid residues, epitope sequence of polypeptide (E11) (NAKR; VAR_SEQ 1..4 epitope)", "values": [{"measurement": "Epitope cross-reactivity", "setting": "[1]", "value": "confirmed in many samples"}]}, {"substance": "SEQ ID NO: 636: polypeptide consisting of 4 amino acid residues, epitope sequence of polypeptide (E9) (SQKE; VAR_SEQ 1..4 epitope)", "values": [{"measurement": "Epitope cross-reactivity", "setting": "[1]", "value": "confirmed in many samples"}]}, {"substance": "SEQ ID NO: 587: polypeptide consisting of 4 amino acid residues, epitope sequence of polypeptide (E4) (ELEE; VAR_SEQ 1..4 epitope)", "values": [{"measurement": "Epitope cross-reactivity", "setting": "[1]", "value": "confirmed in many samples"}]}, {"substance": "SEQ ID NO: 595: polypeptide consisting of 4 amino acid residues, epitope sequence of polypeptide (E5) (MEEL; VAR_SEQ 1..4 epitope)", "values": [{"measurement": "Epitope cross-reactivity", "setting": "[1]", "value": "confirmed in many samples"}]}, {"substance": "E39: common 15-residue IgE-binding epitope sequence of polypeptide (E39), myosin heavy chain type 1-derived (VQKTNQDKATKDHQI; VAR_SEQ 1..15 epitope) [Epitope E39]", "values": [{"measurement": "Peptide bound to an IgE antibody in serum in a patient-specific manner", "setting": "[2]", "value": "bound to an IgE antibody in serum in a patient-specific manner"}]}, {"substance": "E41: common 15-residue IgE-binding epitope sequence of polypeptide (E41), myosin heavy chain type 1-derived (MTQETVADIERQHKD; VAR_SEQ 1..15 epitope) [Epitope E41]", "values": [{"measurement": "Peptide bound to an IgE antibody in serum in a patient-specific manner", "setting": "[2]", "value": "bound to an IgE antibody in serum in a patient-specific manner"}]}]}
